Experimental data from ChEMBL document CHEMBL1127940, “Analogs of the marine natural product scalaradial lacking the ,-unsaturated aldehyde: effects on human synovial fluid phospholipase A2 and macrophage lipid mediator production” (Bioorg Med Chem Lett, 1994).

Key:
[1] = In vitro inhibition of PGE-2 production in murine resident peritoneal macrophage; type: functional; conditions: Mus musculus
Homo sapiens [2] = species on record: Homo sapiens; experiment: In vitro inhibition of LTB4 production in human PMN at 50 uM; not active at 50 uM; type: functional
[3] = biological target: T1, Phospholipase A2, membrane associated (Homo sapiens, UniProt P14555); experiment: In vitro inhibition tested against Phospholipase A2 (HSF-PLA2) by monitoring hydrolysis of [3H]- arachidonic acid labeled Escherichia coli at 50 uM
T1 sequence (P14555 whole entry): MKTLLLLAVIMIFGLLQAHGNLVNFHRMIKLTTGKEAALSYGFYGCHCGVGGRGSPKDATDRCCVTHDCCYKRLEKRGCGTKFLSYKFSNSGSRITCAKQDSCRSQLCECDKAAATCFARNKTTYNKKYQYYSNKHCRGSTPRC

Homo sapiens [4] = species on record: Homo sapiens; experiment: In vitro inhibition of platelet activating factor (PAF) production in human PMN at 50 uM; not active at 50 uM; type: functional
[5] = biological target: T2, Phospholipase A2, membrane associated (Homo sapiens) (UniProt P14555); experiment: In vitro percent inhibition against Phospholipase A2 (HSF-PLA2) by monitoring hydrolysis of [3H]- arachidonic acid labeled Escherichia coli at 50 uM
T2 sequence (whole entry): T1 sequence (P14555 whole entry)

Homo sapiens [6] = species on record: Homo sapiens; experiment: In vitro inhibition of platelet activating factor (PAF) production in human PMN; type: functional
Homo sapiens [7] = species on record: Homo sapiens; experiment: In vitro inhibition of LTB4 production in human PMN; type: functional
[8] = biological target: T1, Phospholipase A2, membrane associated; experiment: In vitro inhibitory activity against human synovial fluid phospholipase A2 (HSF-PLA2) by monitoring hydrolysis of [3H]arachidonic acid labeled Escherichia coli
Homo sapiens [9] = species on record: Homo sapiens; experiment: In vitro percent inhibition of platelet activating factor (PAF) production in human PMN at 10 uM; type: functional

## CC1(C)CCC[C@@]2(C)C1CC[C@]1(C)C2C[C@H](O)[C@@]2(C)C1CC=C(CO)[C@@H]2CO (some centres not stated)
[1]
  IC50: 300 nM
Homo sapiens [2]
  IC50: Not Active
[3]
  IC50: > 50000 nM
Homo sapiens [4]
  IC50: Not Active
[5]
  inhibition: 21%

## CC(=O)O[C@H]1C[C@@H]2[C@@]3(C)CCCC(C)(C)[C@@H]3CC[C@@]2(C)[C@@H]2CC=C(C=O)[C@H](C=O)[C@@]12C [SCALARADIAL]
[1]
  IC50: 40 nM
Homo sapiens [6]
  IC50: 1000 nM
Homo sapiens [7]
  IC50: 1000 nM
[8]
  IC50: 15 nM

## CC(=O)O[C@H]1CC2[C@@]3(C)CCCC(C)(C)C3CC[C@@]2(C)C2CC=C(C(=O)O)[C@H](C(=O)O)[C@]21C (some centres not stated)
[1]
  IC50: 200 nM
Homo sapiens [9]
  inhibition at 10 µM: 60%
[8]
  IC50: 4800 nM
